# Measured values: patent US20090170847A1, “Imidazopyridine Derivatives Inhibiting Protein Kinase Activity, Method for the Preparation Thereof and Pharmaceutical Composition Containing Same” (priority 2006, published 2009)
# What was measured:
# Type in all cases: biochemical
# KDR = molecular target: T1, KDR (Homo sapiens, UniProt P35968); test: KDR enzyme inhibition (Biotin-polyE4Y, alphascreen); settings: 0.1 μM ATP
# T1 construct: purchased Upstate
# Protocol: (§1) The test solution prepared above by dissolving a test compound in DMSO was added to the reaction solution in an amount of less than 5% based on the total reaction solution to analyze the capacity for enzyme inhibitory activity. The cpm value obtained when the test compounds was present relative to the cpm value in the absence of the test compound was represented by percentage, and IC50 (μM) was determined as the concentration of the test compound required to inhibit the enzyme activity by 50% relatively to the control solution.
# The compounds prepared in the Examples were dissolved in dimethylsulfoxide (DMSO) at a concentration of 12.5 mM to prepare test solution, and enzyme reaction was conducted in a buffer solution containing 50 mM tris-HCl (pH 7.5), 5 mM MgCl2, 1 mM MnCl2, 0.01% tween-20 and 2 mM of DTT. 1 nM of Biotin-polyE4Y (Packard) and 0.1 μM of ATP were added to the buffer solution as substrates. 2 nM of recombinant KDR (Upstate) was added the resulting mixture and reaction was carried out at 30° C. for 1 hour. 10 μl of a diluted solution prepared by diluting alphascreen phosphotyrosine (T-Tyr-100, Packard) beads with a solution containing 6.25 mM of HEPES (pH 7.4), 250 mM of NaCl, 100 Mm EDTA, and 0.25% BSA was added to 15 μl of the KDR reaction solution. After a reaction at a room temperature for 1 hour, alphascreen signal was measured by a fusion a-FP (Packard). Inhibitory capacities of the test compounds for the enzyme activity were assessed according to the same method as in GSK-3β analysis, and IC50 value was calculated.
# CDK-2/cycline A = molecular target: T2, CDK-2/cycline A (Homo sapiens, UniProt P24941); test: CDK-2 enzyme inhibition (histone H1, 32P-ATP)
# T2 construct: purchased Upstate
# Protocol: (§2) 0.33 mg/ml of MBP (Upstate), 100 μM of ATP and 0.25 μCi of ^32P-ATP were added to the buffer solution as substrates. 5 nM of recombinant Erk-1 (Upstate) was added the resulting mixture, and the mixture was reacted at 30° C. for 1 hour. The reaction was terminated by adding 5 μl of 5% phosphoric acid solution to 25 μl of the reaction mixture. 15 μl of the resulting solution was dropped on whatman p81 filter paper, which was then washed in 0.5% phosphoric acid solution for 10 mins. After repeating the washing 3 times, the filter paper was dried and cpm thereof was measured by a liquid scintillation counter (Packard, USA). Inhibitory capacities of the test compounds for the enzyme activity were assessed according to the same method as in GSK-3β analysis, and IC50 value was calculated.
# The procedure of ERK-1 analysis was repeated to assess inhibitory capacities of the test compounds for the enzyme activity, except for using 2.5 μg of histone H1 (Upstate) and 100 nM of recombinant CDK-2/cycline A (Upstate).
# JNK-1 = molecular target: T3, JNK-1 (Homo sapiens, UniProt P45983); test: JNK-1 enzyme inhibition (GST-ATF2, 32P-ATP)
# T3 construct: purchased Upstate
# T3 sequence (P45983 whole entry, species assumed): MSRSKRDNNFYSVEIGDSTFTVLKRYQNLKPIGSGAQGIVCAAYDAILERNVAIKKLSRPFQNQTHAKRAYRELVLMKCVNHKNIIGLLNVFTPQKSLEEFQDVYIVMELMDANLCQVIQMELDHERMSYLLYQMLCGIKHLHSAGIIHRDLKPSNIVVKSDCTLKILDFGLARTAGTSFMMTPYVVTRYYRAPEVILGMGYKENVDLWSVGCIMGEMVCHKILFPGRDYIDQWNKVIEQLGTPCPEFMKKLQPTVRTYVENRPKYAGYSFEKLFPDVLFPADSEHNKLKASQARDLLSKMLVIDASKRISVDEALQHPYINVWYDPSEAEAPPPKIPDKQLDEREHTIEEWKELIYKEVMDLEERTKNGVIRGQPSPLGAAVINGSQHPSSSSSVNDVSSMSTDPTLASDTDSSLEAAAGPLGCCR
# ERK-1 = molecular target: T4, ERK-1 (Homo sapiens, UniProt P27361); test: ERK-1 enzyme inhibition (MBP, 32P-ATP); settings: ERK-1, 100 μM ATP
# T4 construct: purchased Upstate
# T4 sequence (P27361 whole entry, species assumed): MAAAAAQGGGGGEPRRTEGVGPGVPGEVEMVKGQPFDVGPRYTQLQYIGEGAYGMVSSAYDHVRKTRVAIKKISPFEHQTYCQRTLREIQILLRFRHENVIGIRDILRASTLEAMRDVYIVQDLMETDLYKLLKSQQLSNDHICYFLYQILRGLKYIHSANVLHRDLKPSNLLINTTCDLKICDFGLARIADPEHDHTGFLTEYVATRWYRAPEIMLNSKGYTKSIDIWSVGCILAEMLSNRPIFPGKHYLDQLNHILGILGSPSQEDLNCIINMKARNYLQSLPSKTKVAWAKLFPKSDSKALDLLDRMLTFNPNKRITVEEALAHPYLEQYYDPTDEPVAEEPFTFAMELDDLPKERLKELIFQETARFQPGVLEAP
# Protocol: as §1
# as §2, with “The compounds prepared in the Examples were dissolved in dimethylsulfoxide (DMSO) at a concentration of 12.5 mM to prepare test compounds and enzyme reaction was conducted in a buffer solution containing 50 mM of tris-HCl (pH 7.5), 10 mM of MgCl2, 1 mM of EGTA, 1 mM of EDTA and 1 mM of DTT. 0.33” for “0.33”
# PDK-1 = molecular target: T5, PDK-1 (Homo sapiens, UniProt O15530); test: PDK-1 enzyme inhibition (PDKtide, Kinase glo)
# T5 construct: purchased Upstate
# T5 sequence (O15530 1-556): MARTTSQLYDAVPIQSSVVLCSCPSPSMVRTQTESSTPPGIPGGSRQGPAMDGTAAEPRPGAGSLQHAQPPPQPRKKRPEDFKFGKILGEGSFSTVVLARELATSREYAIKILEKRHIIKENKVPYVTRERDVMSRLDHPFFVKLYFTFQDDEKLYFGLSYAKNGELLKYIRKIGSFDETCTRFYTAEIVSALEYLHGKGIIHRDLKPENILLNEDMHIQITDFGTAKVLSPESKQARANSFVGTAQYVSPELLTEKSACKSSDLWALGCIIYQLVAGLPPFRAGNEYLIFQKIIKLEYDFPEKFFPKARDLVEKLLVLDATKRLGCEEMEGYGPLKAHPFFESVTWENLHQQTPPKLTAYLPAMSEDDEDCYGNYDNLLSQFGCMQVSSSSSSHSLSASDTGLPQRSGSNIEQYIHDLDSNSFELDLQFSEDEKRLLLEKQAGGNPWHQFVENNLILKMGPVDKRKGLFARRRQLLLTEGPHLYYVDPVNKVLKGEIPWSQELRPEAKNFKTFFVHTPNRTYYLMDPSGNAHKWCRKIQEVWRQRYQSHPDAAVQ
# Protocol: (§3) A test solution was prepared by dissolving one of the compounds of the Examples in DMSO at a concentration of 12.5 mM. Enzyme reaction was conducted in a buffer solution containing 20 mM of HEPES (pH 7.5), 5 mM MgCl2, 0.5 mM ethylene glycol bis(b-aminoethylether) tetraacetic acid (EGTA), 200 mM of KCl, 1 mM of DTT and 0.05% triton X-100. 100 μM of Kemptide peptide (Upstate) and 1 μM of ATP were added to the buffer solution as substrates. Recombinant aurora kinase (Upstate) was added the resulting mixture at a concentration of 10 nM and reaction was carried out at 30° C. for 1 hour. 25 μl of the resulting solution was mixed with 25 μl of Kinase glo (promega), thereby inducing the second reaction by luciferase. The amount of remained ATP was measured by fusion a-FP (Packard, USA). Inhibitory capacities of the test compounds for the enzyme activity were assessed according to the same method as in GSK-3β analysis, and IC50 value was calculated.
# The procedure of aurora kinase A analysis was repeated to assess inhibitory capacities of the test compounds for the enzyme activity, except for using a buffer solution containing 50 mM of tris-HCl (pH 7.5), 10 mM of MgCl2, 1 mM of EGTA and 1 mM of […]; 2.5 μM of PDKtide (peptide, Upstate) (Upstate); and 31.5 nM of recombinant PDK1 (Upstate).
# [1] = molecular target: T6, p38 Mitogen-activated protein kinase (MAPK) (Homo sapiens, UniProt Q16539); test: p38 MAPK enzyme inhibition (histone H1, 32P-ATP); settings: p38 MAPK (recombinant p38a)
# T6 construct: purchased Upstate
# T6 sequence (Q16539 whole entry): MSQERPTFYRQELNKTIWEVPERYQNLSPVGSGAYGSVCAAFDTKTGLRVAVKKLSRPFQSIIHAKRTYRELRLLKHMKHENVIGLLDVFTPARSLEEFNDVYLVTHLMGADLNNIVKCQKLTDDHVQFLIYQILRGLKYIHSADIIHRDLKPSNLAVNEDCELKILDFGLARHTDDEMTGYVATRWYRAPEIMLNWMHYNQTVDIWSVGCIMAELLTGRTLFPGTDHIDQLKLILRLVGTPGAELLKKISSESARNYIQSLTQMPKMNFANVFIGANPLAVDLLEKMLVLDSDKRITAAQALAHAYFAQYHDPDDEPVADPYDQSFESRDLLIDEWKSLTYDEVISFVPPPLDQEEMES
# Protocol: The procedure of ERK-1 analysis was repeated to assess inhibitory capacities of the test compounds for the enzyme activity, except for using 2.5 μg of histone H1 (Upstate) and 5 nM of recombinant p38a (Upstate).
# Aurora Kinase A = molecular target: T7, Aurora Kinase A (Homo sapiens, UniProt O14965); test: Aurora kinase A enzyme inhibition (Kemptide, Kinase glo); settings: 1 μM ATP
# T7 construct: purchased Upstate
# T7 sequence (O14965 1-403): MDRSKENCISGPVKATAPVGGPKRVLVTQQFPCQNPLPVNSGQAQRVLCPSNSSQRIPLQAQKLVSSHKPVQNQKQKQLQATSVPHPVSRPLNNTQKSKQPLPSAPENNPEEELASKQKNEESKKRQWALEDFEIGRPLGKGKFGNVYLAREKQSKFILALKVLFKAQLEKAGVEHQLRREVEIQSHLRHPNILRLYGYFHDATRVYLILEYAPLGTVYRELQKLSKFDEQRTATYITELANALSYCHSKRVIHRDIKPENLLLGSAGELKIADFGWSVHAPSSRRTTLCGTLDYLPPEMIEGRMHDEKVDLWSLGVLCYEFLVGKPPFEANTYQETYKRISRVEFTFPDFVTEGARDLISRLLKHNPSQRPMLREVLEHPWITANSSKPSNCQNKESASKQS
# Protocol: as §1, §3
# T1 sequence (P35968 20-1356, species assumed): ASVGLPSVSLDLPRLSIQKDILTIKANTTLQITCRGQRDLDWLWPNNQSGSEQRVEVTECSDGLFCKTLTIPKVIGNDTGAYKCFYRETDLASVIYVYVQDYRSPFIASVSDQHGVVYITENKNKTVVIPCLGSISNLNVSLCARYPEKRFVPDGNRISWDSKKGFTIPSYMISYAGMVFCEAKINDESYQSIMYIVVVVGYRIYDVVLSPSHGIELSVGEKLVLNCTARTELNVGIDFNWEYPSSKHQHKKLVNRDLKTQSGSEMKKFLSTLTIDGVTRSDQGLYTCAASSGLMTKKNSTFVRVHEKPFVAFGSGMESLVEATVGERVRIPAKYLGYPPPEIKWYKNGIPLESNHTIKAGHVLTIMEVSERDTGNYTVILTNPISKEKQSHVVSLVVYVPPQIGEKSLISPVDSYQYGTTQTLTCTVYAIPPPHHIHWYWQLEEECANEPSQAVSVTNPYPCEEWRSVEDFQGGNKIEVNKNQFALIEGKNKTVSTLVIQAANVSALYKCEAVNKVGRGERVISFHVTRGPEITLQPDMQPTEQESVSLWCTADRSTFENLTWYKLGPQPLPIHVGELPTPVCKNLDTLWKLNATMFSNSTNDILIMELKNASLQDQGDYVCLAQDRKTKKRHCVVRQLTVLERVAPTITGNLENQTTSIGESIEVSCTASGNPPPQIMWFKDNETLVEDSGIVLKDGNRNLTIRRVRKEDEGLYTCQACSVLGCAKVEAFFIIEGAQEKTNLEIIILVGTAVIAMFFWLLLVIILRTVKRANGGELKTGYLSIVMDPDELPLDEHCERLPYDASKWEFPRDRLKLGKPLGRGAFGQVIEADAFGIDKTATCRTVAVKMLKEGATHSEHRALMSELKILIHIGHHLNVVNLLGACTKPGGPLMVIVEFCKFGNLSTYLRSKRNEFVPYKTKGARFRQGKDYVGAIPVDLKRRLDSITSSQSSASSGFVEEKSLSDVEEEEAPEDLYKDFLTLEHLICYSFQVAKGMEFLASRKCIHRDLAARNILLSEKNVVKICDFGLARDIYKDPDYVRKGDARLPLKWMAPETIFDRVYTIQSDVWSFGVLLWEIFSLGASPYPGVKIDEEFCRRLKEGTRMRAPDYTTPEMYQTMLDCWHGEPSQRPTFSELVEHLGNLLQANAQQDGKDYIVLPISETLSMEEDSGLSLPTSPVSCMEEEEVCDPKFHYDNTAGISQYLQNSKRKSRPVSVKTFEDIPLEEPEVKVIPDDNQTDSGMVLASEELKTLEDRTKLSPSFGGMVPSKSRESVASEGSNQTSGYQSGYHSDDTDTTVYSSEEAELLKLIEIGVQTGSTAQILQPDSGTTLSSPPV
smiles,measurement,setting,value
"CCS(=O)(=O)Nc1ccc(CCNC(=O)c2ccnc3[nH]c(-c4ccc(F)cc4)nc23)cc1 [Example 198, 2-(4-fluoro-phenyl)-3H-imidazo[4,5-b]pyridine-7-carboxylic acid[2-(4-ethanesulfonylamino-phenyl)-ethyl]-amide]",IC50,KDR,12500 nM
same,IC50,CDK-2/cycline A,2400 nM
"COc1ccncc1NC(=O)c1ccnc2[nH]c(-c3ccc(F)cc3)nc12 [Example 246, 2-(4-fluoro-phenyl)-3H-imidazo[4,5-b]pyridine-7-carboxylic acid(4-methyloxy-pyridin-3-yl)-amide]",IC50,KDR,520 nM
same,IC50,CDK-2/cycline A,225 nM
same,IC50,JNK-1,180 nM
"Cc1ccncc1NC(=O)c1ccnc2[nH]c(-c3ccc(F)cc3)nc12 [Example 241, 2-(4-fluoro-phenyl)-3H-imidazo[4,5-b]pyridine-7-carboxylic acid(4-methyl-pyridin-3-yl)-amide]",IC50,ERK-1,16500 nM
same,IC50,PDK-1,28500 nM
"Cc1ccncc1NC(=O)c1c(Br)cnc2[nH]c(-c3cccc(F)c3)nc12 [Example 452, 6-bromo-2-(3-fluoro-phenyl)-3H-imidazo[4,5-b]pyridine-7-carboxylic acid(4-methyl-pyridin-3-yl)-amide]",IC50,ERK-1,19000 nM
same,IC50,CDK-2/cycline A,350 nM
"Cc1ccncc1NC(=O)c1ccnc2[nH]c(-c3ccc(NCCCN4CCCC4)cc3)nc12 [Example 340, 2-[4-(3-pyrrolidin-1-yl-propylamino)-phenyl]-3H-imidazo[4,5-b]pyridine-7-carboxylic acid(4-methyl-pyridin-3-yl)-amide]",IC50,CDK-2/cycline A,400 nM
same,IC50,JNK-1,100 nM
"Cc1ccncc1NC(=O)c1ccnc2[nH]c(-c3cccc(F)c3)nc12 [Example 451, 2-(3-fluoro-phenyl)-3H-imidazo[4,5-b]pyridine-7-carboxylic acid(4-methyl-pyridin-3-yl)-amide]",IC50,KDR,1650 nM
same,IC50,CDK-2/cycline A,360 nM
same,IC50,[1],3250 nM
same,IC50,JNK-1,10500 nM
"CCOc1ccncc1NC(=O)c1ccnc2[nH]c(-c3ccc(F)cc3)nc12 [Example 287, 2-(4-fluoro-phenyl)-3H-imidazo[4,5-b]pyridine-7-carboxylic acid(4-ethoxy-pyridin-3-yl)-amide]",IC50,KDR,1500 nM
same,IC50,CDK-2/cycline A,120 nM
same,IC50,JNK-1,460 nM
"Cc1ccncc1NC(=O)c1ccnc2[nH]c(-c3ccc(NCCCCN(C)C)cc3)nc12 [Example 343, 2-[4-(4-dimethylamino-butylamino)-phenyl]-3H-imidazo[4,5-b]pyridine-7-carboxylic acid(4-methyl-pyridin-3-yl)-amide]",IC50,KDR,170 nM
same,IC50,Aurora Kinase A,198 nM
same,IC50,CDK-2/cycline A,300 nM
same,IC50,PDK-1,3100 nM
